Test results published in the supplement of paper PMC11061612.

Columns and labels:
Trametinib = compound: CC(=O)Nc1cccc(-n2c(=O)n(C3CC3)c(=O)c3c(Nc4ccc(I)cc4F)n(C)c(=O)c(C)c32)c1 [Trametinib]; conditions: max 1 µM
Outline: (§1)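 Viability was measured with CellTiter-Glo 2.0 luminescence after 72 hours of dosing at a final DMSO of typically 0.2%, and scaled between blank-well and DMSO-well means. Beforehand, cancer cell lines sat 24 hours at 37°C and 5% CO2 in 1536-well plates in 7.5 μl DMEM/F12 or RPMI with 10% FBS. A non-linear mixed effects model fitted two-parameter logistic curves to the dose responses. The single-agent IC50 comes from these fits.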

AZD5991 = compound: Cc1c2c(nn1C)CSCc1cc(n(C)n1)CSc1cc(c3ccccc3c1)OCCCc1c(C(=O)O)n(C)c3c-2c(Cl)ccc13 [AZD5991]; conditions: max 1 µM
Outline: as §1

Selumetinib = compound: Cn1cnc2c(F)c(Nc3ccc(Br)cc3Cl)c(C(=O)NOCCO)cc21 [Selumetinib]; conditions: max 10 µM
Outline: as §1

AZD1390 = compound: CC(C)n1c(=O)n(C)c2cnc3cc(F)c(-c4ccc(OCCCN5CCCCC5)nc4)cc3c21 [AZD1390]; conditions: max 0.3 µM
Outline: as §1

Taselisib = compound: Cc1nc(-c2cn3c(n2)-c2ccc(-c4cnn(C(C)(C)C(N)=O)c4)cc2OCC3)n(C(C)C)n1 [Taselisib]; conditions: max 10 µM
Outline: as §1

Gefitinib = compound: COc1cc2ncnc(Nc3ccc(F)c(Cl)c3)c2cc1OCCCN1CCOCC1 [Gefitinib]; conditions: max 10 µM
Outline: as §1

AZD2811 = compound: CCN(CCO)CCCOc1ccc2c(Nc3cc(CC(=O)Nc4cccc(F)c4)[nH]n3)ncnc2c1 [AZD2811]; conditions: max 1 µM
Outline: as §1

Capivasertib = compound: C1CN(CCC1(C(=O)N[C@@H](CCO)C2=CC=C(C=C2)Cl)N)C3=NC=NC4=C3C=CN4 [Capivasertib]; conditions: max 10 µM
Outline: as §1

SG3199 = compound: CC1=CN2[C@@H](C1)C=NC3=CC(=C(C=C3C2=O)OC)OCCCCCOC4=C(C=C5C(=C4)N=C[C@@H]6CC(=CN6C5=O)C)OC [SG3199]; conditions: max 0.001 µM
Outline: as §1

Olaparib = compound: O=C(c1cc(Cc2n[nH]c(=O)c3ccccc23)ccc1F)N1CCN(C(=O)C2CC2)CC1 [Olaparib]
Outline: as §1

AZD7648 = compound: Cc1cc2ncnn2cc1Nc1ncc2c(n1)n(C1CCOCC1)c(=O)n2C [AZD7648]; conditions: max 10 µM
Outline: as §1

Alisertib = compound: COc1cc(Nc2ncc3c(n2)-c2ccc(Cl)cc2C(c2c(F)cccc2OC)=NC3)ccc1C(=O)O [Alisertib]; conditions: max 10 µM
Outline: as §1

Venetoclax = compound: CC1(C)CCC(CN2CCN(c3ccc(C(=O)NS(=O)(=O)c4ccc(NCC5CCOCC5)c([N+](=O)[O-])c4)c(Oc4cnc5[nH]ccc5c4)c3)CC2)=C(c2ccc(Cl)cc2)C1 [Venetoclax]; conditions: max 1 µM
Outline: as §1

AZD5153 = compound: COc1nnc2ccc(N3CCC(c4ccc(OCCN5CCN(C)C(=O)[C@H]5C)cc4)CC3)nn12 [AZD5153]; conditions: max 1 µM
Outline: as §1

SN-38 = compound: CCc1c2c(nc3ccc(O)cc13)-c1cc3c(c(=O)n1C2)COC(=O)[C@]3(O)CC [SN-38]; conditions: max 0.3 µM
Outline: as §1

Doxorubicin = compound: COc1cccc2c1C(=O)c1c(O)c3c(c(O)c1C2=O)C[C@@](O)(C(=O)CO)C[C@@H]3O[C@H]1C[C@H](N)[C@H](O)[C@H](C)O1 [Doxorubicin]; conditions: max 1 µM
Outline: as §1

Savolitinib = compound: C[C@@H](c1ccc2nccn2c1)n1nnc2ncc(-c3cnn(C)c3)nc21 [Savolitinib]; conditions: max 1 µM
Outline: as §1

AZD4320 = compound: CN(CC[C@H](CSC1=CC=CC=C1)NC2=C(C=C(C=C2)S(=O)(=O)NC(=O)C3=CC=C(C=C3)N4CCC(CC4)[C@H](C5=CC=CC=C5C6=CC=C(C=C6)Cl)O)S(=O)(=O)C(F)(F)F)CCO [AZD4320]; conditions: max 1 µM
Outline: as §1

AZD6738 = compound: C[C@@H]1COCCN1C2=NC(=NC(=C2)C3(CC3)[S@](=N)(=O)C)C4=C5C=CNC5=NC=C4 [AZD6738]; conditions: max 10 µM
Outline: as §1

AZD8186 = compound: C[C@@H](Nc1cc(F)cc(F)c1)c1cc(C(=O)N(C)C)cc2c(=O)cc(N3CCOCC3)oc12 [AZD8186]; conditions: max 3 µM
Outline: as §1

Crizotinib = compound: C[C@@H](Oc1cc(-c2cnn(C3CCNCC3)c2)cnc1N)c1c(Cl)ccc(F)c1Cl [Crizotinib]; conditions: max 10 µM
Outline: as §1

Dasatinib = compound: CC1=C(C(=CC=C1)Cl)NC(=O)C2=CN=C(S2)NC3=CC(=NC(=N3)C)N4CCN(CC4)CCO [Dasatinib]; conditions: max 2 µM
Outline: as §1

AZD0156 = compound: CN(C)CCCOc1ccc(-c2ccc3ncc4c(c3c2)n(C2CCOCC2)c(=O)n4C)cn1 [AZD0156]; conditions: max 3 µM
Outline: as §1

AZD1775 = compound: C=CCn1c(=O)c2cnc(Nc3ccc(N4CCN(C)CC4)cc3)nc2n1-c1cccc(C(C)(C)O)n1 [AZD1775]; conditions: max 3 µM
Outline: as §1

Lapatinib = compound: CS(=O)(=O)CCNCc1ccc(-c2ccc3ncnc(Nc4ccc(OCc5cccc(F)c5)c(Cl)c4)c3c2)o1 [Lapatinib]; conditions: max 10 µM
Outline: as §1

Prexasertib = compound: COc1cccc(OCCCN)c1-c1cc(Nc2cnc(C#N)cn2)n[nH]1 [Prexasertib]; conditions: max 1 µM
Outline: as §1

Palbociclib = compound: CC(=O)c1c(C)c2cnc(Nc3ccc(N4CCNCC4)cn3)nc2n(C2CCCC2)c1=O [Palbociclib]; conditions: max 10 µM
Outline: as §1

Row | Cell Line | IC50, cell viability 72 h (Trametinib) [nM] | IC50, cell viability 72 h (AZD5991) [nM] | IC50, cell viability 72 h (Selumetinib) [nM] | IC50, cell viability 72 h (AZD1390) [nM] | IC50, cell viability 72 h (Taselisib) [nM] | IC50, cell viability 72 h (Gefitinib) [nM] | IC50, cell viability 72 h (AZD2811) [nM] | IC50, cell viability 72 h (Capivasertib) [nM] | IC50, cell viability 72 h (SG3199) [nM] | IC50, cell viability 72 h (Olaparib; max 10 µM) [nM] | IC50, cell viability 72 h (AZD7648) [nM] | IC50, cell viability 72 h (Alisertib) [nM] | IC50, cell viability 72 h (Venetoclax) [nM] | IC50, cell viability 72 h (AZD5153) [nM] | IC50, cell viability 72 h (SN-38) [nM] | IC50, cell viability 72 h (Doxorubicin) [nM] | IC50, cell viability 72 h (Savolitinib) [nM] | IC50, cell viability 72 h (AZD4320) [nM] | IC50, cell viability 72 h (AZD6738) [nM] | IC50, cell viability 72 h (AZD8186) [nM] | IC50, cell viability 72 h (Crizotinib) [nM] | IC50, cell viability 72 h (Dasatinib) [nM] | IC50, cell viability 72 h (AZD0156) [nM] | IC50, cell viability 72 h (AZD1775) [nM] | IC50, cell viability 72 h (Lapatinib) [nM] | IC50, cell viability 72 h (Prexasertib) [nM] | IC50, cell viability 72 h (Palbociclib) [nM] | IC50, cell viability 72 h (Olaparib; max 3 µM) [nM]
1 | KLE (Endometrial Carcinoma) | > 1000 | > 1000 | > 10000 | > 300 | 2430 | > 10000 | > 1000 | > 10000 | > 1 | > 10000 | > 10000 | 9070 | > 1000 | 315 | > 300 | > 1000 | > 1000 | > 1000 | > 10000 | > 3000 | > 10000 | 186 | > 3000 | 1800 | > 10000 | > 1000 | > 10000 | 
2 | KP-2 (Pancreatic Carcinoma) | 778 | > 1000 | 8020 | > 300 | > 10000 | > 10000 | > 1000 | > 10000 | > 1 | > 10000 | > 10000 | > 10000 | > 1000 | > 1000 | > 300 | > 1000 | > 1000 | 238 | > 10000 | > 3000 | > 10000 | > 2000 | > 3000 | > 3000 | > 10000 | 867 | > 10000 | 
3 | NH-12 (Neuroblastoma) | 105 | > 1000 | > 10000 | > 300 | 1250 | > 10000 | 509 | > 10000 | > 1 | > 10000 | > 10000 | 68.8 | 576 | 625 | 4.09 | 157 | > 1000 | 79.3 | 2370 | > 3000 | 3020 | > 2000 | > 3000 |  | > 10000 | 17.3 | > 10000 | 
4 | U-87-MG (Glioblastoma) | > 1000 | > 1000 | > 10000 | > 300 | 2450 | > 10000 | > 1000 | > 10000 |  |  | > 10000 | > 10000 | > 1000 | > 1000 | 40.5 |  | > 1000 | > 1000 | > 10000 | 2450 | > 10000 | > 2000 | > 3000 | > 3000 | > 10000 | > 1000 | > 10000 | > 3000
